Data set [1] deals with T1, Peroxisome proliferator-activated receptor gamma (Homo sapiens, UniProt P37231).
T1 sequence (P37231 whole entry): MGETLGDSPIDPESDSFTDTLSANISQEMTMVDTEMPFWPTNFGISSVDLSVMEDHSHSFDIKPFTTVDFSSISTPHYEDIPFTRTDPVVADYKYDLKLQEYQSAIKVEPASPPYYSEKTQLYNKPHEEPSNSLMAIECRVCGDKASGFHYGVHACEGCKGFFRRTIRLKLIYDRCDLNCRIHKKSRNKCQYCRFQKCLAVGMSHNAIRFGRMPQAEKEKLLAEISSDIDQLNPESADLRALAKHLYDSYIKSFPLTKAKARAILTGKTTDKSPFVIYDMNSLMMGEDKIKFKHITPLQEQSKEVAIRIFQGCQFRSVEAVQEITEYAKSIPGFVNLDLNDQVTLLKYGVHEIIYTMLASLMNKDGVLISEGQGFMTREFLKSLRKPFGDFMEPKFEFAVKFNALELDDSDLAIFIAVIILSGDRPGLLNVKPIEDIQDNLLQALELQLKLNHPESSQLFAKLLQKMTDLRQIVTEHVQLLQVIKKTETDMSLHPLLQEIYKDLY
Put plainly: Binding affinity to PPARgamma.

The nature of data set [2]: Aqueous solubility in water after 24 hrs. It is filed as physicochemical.
Data set [3] is described as follows: Drug level in blood of sub-chronic rat joint pain efficacy model treatment group at 5 mg/kg bid measured on day 5 after 1 hr post dose. It is filed as ADME, organism-based. The settings on record: read-out: Drug uptake. Set-up: dose 5 mg/kg.
The next data set has as its system Liver microsomes. Nature of the data set: Metabolic stability assessed as intrinsic clearance per gram of rat liver microsomes. It is filed as ADME, Microsome.
A short description of data set [4]: Ratio of drug level in brain to blood of sub-chronic rat joint pain efficacy model satellite animal group at 20 mg/kg bid measured on day 5. Type of data set: ADME, organism-based. Further details: dose 20 mg/kg.
The nature of data set [5]: Drug level in blood of sub-chronic rat joint pain efficacy model satellite animal group at 20 mg/kg bid measured on day 1 after 1 hr post dose. Type of data set: ADME, organism-based. Set-up: dose 20 mg/kg. Conditions: read-out: Drug uptake.
Data set [6] can be described thus: Drug level in blood of complete Freund's adjuvant-induced rat inflammatory pain model at 3 mg/kg, po after 1 hr. It is filed as ADME, organism-based. Further details: dose 3 mg/kg, route oral. The settings on record: read-out: Drug uptake.
Data set [7] has as its target T2, Peroxisome proliferator-activated receptor delta (Homo sapiens, UniProt Q03181).
T2 sequence (Q03181 whole entry): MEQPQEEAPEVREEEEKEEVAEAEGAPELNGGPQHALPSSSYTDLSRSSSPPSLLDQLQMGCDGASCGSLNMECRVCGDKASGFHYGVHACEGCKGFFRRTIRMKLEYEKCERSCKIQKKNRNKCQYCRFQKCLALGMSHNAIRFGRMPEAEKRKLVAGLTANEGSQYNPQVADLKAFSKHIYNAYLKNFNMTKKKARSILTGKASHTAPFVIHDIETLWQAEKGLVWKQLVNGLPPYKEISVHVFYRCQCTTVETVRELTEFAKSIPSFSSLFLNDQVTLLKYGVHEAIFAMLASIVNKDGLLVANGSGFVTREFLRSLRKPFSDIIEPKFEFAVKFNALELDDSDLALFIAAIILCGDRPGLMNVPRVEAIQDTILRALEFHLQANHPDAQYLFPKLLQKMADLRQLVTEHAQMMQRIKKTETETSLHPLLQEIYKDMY
Nature of the data set: Activity at PPARdelta.

Data set [8] is described as follows: Solubility in simulated gastric fluid after 2 hrs. Type of data set: physicochemical.
The target in data set [9] is T3, Peroxisome proliferator-activated receptor alpha (Homo sapiens, UniProt Q07869).
T3 sequence (Q07869 whole entry): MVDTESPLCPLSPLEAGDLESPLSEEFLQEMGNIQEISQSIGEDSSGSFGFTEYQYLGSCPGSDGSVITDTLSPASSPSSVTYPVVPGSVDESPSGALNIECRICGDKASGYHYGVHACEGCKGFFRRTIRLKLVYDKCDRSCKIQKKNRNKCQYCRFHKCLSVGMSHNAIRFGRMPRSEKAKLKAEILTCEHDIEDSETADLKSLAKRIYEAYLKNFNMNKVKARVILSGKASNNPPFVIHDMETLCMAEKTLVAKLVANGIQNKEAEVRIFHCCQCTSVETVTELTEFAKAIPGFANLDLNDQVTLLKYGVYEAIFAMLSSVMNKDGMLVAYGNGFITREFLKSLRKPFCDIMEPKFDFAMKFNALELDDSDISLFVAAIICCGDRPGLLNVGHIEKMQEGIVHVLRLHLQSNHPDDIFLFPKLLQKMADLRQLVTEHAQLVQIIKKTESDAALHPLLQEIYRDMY
Nature of the data set: Binding affinity to PPARalpha.

The nature of data set [10]: Drug level in brain of complete Freund's adjuvant-induced rat inflammatory pain model at 10 mg/kg, po after 1 hr. It is filed as ADME, organism-based. Set-up: dose 10 mg/kg, route oral. The settings on record: read-out: Drug uptake.
Data set [11] in a line: Drug level in rat blood at 0.28 mg/kg/hr, iv for 18 hrs. It is filed as ADME, organism-based. Set-up: route intravenous. The settings on record: read-out: Drug uptake.
Data set [12] is described as follows: Oral bioavailability in cynomolgus monkey at 3 mg/kg. It is filed as ADME, organism-based, Macaca fascicularis. The settings on record: in vivo.

Data on 1 compound can be found in ChEMBL document CHEMBL1154508, “Discovery of GSK345931A: An EP(1) receptor antagonist with efficacy in preclinical models of inflammatory pain” (Bioorg Med Chem Lett, 2009).

The structures appear in SMILES notation. Some results are limits rather than exact numbers.

Regarding `CC(C)COc1ccc(Cl)cc1-c1ccccc1-c1cccc(C(=O)[O-])n1.[Na+]`, the Ki in data set [1] was 12.6 µM; in data set [9], more than 20 µM. The compound further registered a solubility at 24 h in [2] of 612 µg/mL. In addition, the concentration at 1 h in data set [3] was 1.63 µM; in data set [5], 25.9 µM; in data set [6], 3.33 µM; in [10], 7.26 µM. Besides, in the data set on Liver microsomes, the CL was 0.7 mL/min/g. The Kp at 5 day in data set [4] worked out at 0.5. In data set [7], this compound had an EC50 of more than 10 µM. In [8], this compound displayed a solubility at 2 h of 33 µg/mL. Also, the concentration at 18 h in data set [11] stood at 1.66 µM. The bioavailability in data set [12] stood at 34%.

Usually Ki stands for the dissociation constant of the complex between target and ligand, obtained from inhibition or displacement. By solubility is commonly meant the dissolved amount per volume that the medium holds. Broadly, the Kp is tissue or fluid exposure divided by exposure in the circulation. In general, EC50 refers to the concentration needed to bring the measured effect to its halfway point. One may read the bioavailability as the share of a dose that reaches the circulation, judged against a reference dose that is usually intravenous.
